{"source": "paper PMC8729770", "about": "“In Vitro Evaluation of Antimicrobial Peptides from the Black Soldier Fly (Hermetia Illucens) against a Selection of Human Pathogens” (Microbiology Spectrum, 2022)", "key": {"S. aureus ATCC 6538": {"test_system": "S. aureus ATCC 6538", "type": "cell-based, Staphylococcus aureus", "settings": "for MIC S. aureus ATCC 6538: determined visually, 16 h; for MBC S. aureus ATCC 6538: wells without visual growth plated on MHA, ≥3 log reduction vs growth control", "procedure": "(§1) To detect antimicrobial activity of the BSF AMPs, the peptide library underwent screening against a panel of microorganisms, consisting of S. aureus ATCC 6538, E. coli ATCC 8739, P. aeruginosa ATCC 9027, C. albicans B59630, and A. fumigatus B42928. Serial dilutions of the peptides were prepared from the DMSO stock solutions in sterile demineralized water in 96-well plates using an automated liquid-handling workstation (Beckman Coulter Biomek 3000) in end volumes of 10 μL. The final in-plate concentration of DMSO was <1%. Peptide concentrations ranged from 64 μM to 0.25 μM for the first evaluation, and from 32 μM to 0.016 μM for the independent repeat. As references, doxycycline (Sigma-Aldrich; S. aureus, E. coli, P. aeruginosa), flucytosine (Sigma-Aldrich; C. albicans), and econazole (Sigma-Aldrich; A. fumigatus) were used. Suspensions of a starting inoculum of 5 × 10^3 CFU/mL (E. coli, S. aureus, C. albicans, A. fumigatus) and 5 × 10^4 CFU/mL (P. aeruginosa) were prepared in MHB (bacterial species) or RPMI medium (fungal species) and 190 μL was added to the 96-well plates. Plates were incubated for 16 h (E. coli, S. aureus, P. aeruginosa), 24 h (C. albicans), or 48 h (A. fumigatus) at 37°C. After incubation, read-out of the antimicrobial activity was performed using a resazurin assay. Then, 20 μL of a 0.01% (wt/vol) resazurin (Sigma-Aldrich) solution was added to each well and plates were incubated for 15 min (S. aureus), 30 min (E. coli), 45 min (P. aeruginosa), 4 h (C. albicans), or 17 h (A. fumigatus) to allow resazurin reduction to take place. Fluorescence was read using a microplate reader (Telix) at λexcitation = 550 nm and λemission = 590. […] MIC values were determined visually. Medium in the wells with no visual growth was plated on MHA to detect the MBC, defined as ≥3 log reduction compared with the growth control."}, "E. coli ATCC 8739": {"test_system": "E. coli ATCC 8739", "type": "cell-based, Escherichia coli", "procedure": "as §1"}, "P. aeruginosa ATCC 9027": {"test_system": "P. aeruginosa ATCC 9027", "type": "cell-based, Pseudomonas aeruginosa", "settings": "for MBC P. aeruginosa ATCC 9027: plated on MHA, ≥3 log reduction vs growth control", "procedure": "as §1"}, "[1]": {"settings": "repeat 1, 64-0.25 μM, determined visually, 16 h"}, "[2]": {"settings": "repeat 1, plated on MHA, ≥3 log reduction vs growth control"}, "[3]": {"settings": "repeat 2, 32-0.016 μM, determined visually, 16 h"}, "[4]": {"settings": "repeat 2, plated on MHA, ≥3 log reduction vs growth control"}}, "note": "Read-outs that look alike come from different tables or passages of the source. Ends that are not written are not given here. Peptide text beside a SMILES is read from it.", "data": [{"compound": "GWWKRVFKPVEKFGQRVRDAGVQGIAIAQQGANVLATARGGPPQQ-NH2 [Hill-Cec2]", "values": [{"measurement": "MIC S. aureus ATCC 6538", "setting": "S. aureus ATCC 6538; repeat 1, 64-0.25 μM", "result": "> 64.00", "unit": "µM"}, {"measurement": "MIC S. aureus ATCC 6538", "setting": "S. aureus ATCC 6538; repeat 2, 32-0.016 μM", "result": "> 32.00", "unit": "µM"}, {"measurement": "MIC E. coli ATCC 8739", "setting": "E. coli ATCC 8739; [1]", "result": 1.00, "unit": "µM"}, {"measurement": "MBC E. coli ATCC 8739", "setting": "E. coli ATCC 8739; [2]", "result": 1.00, "unit": "µM"}, {"measurement": "MIC E. coli ATCC 8739", "setting": "E. coli ATCC 8739; [3]", "result": 2.00, "unit": "µM"}, {"measurement": "MBC E. coli ATCC 8739", "setting": "E. coli ATCC 8739; [4]", "result": 2.00, "unit": "µM"}, {"measurement": "MIC P. aeruginosa ATCC 9027", "setting": "P. aeruginosa ATCC 9027; [1]", "result": 4.00, "unit": "µM"}, {"measurement": "MBC P. aeruginosa ATCC 9027", "setting": "P. aeruginosa ATCC 9027; repeat 1", "result": 16.00, "unit": "µM"}, {"measurement": "MIC P. aeruginosa ATCC 9027", "setting": "P. aeruginosa ATCC 9027; [3]", "result": 2.00, "unit": "µM"}, {"measurement": "MBC P. aeruginosa ATCC 9027", "setting": "P. aeruginosa ATCC 9027; repeat 2", "result": 2.00, "unit": "µM"}]}, {"compound": "GWWKRVFKPVERLGQRVRDAGIQGLQIAQQGANVLATVRGGPPQQ-NH2 [Hill-Cec4]", "values": [{"measurement": "MIC S. aureus ATCC 6538", "setting": "S. aureus ATCC 6538; repeat 1, 64-0.25 μM", "result": "> 64.00", "unit": "µM"}, {"measurement": "MIC S. aureus ATCC 6538", "setting": "S. aureus ATCC 6538; repeat 2, 32-0.016 μM", "result": "> 32.00", "unit": "µM"}, {"measurement": "MIC E. coli ATCC 8739", "setting": "E. coli ATCC 8739; [1]", "result": 1.00, "unit": "µM"}, {"measurement": "MBC E. coli ATCC 8739", "setting": "E. coli ATCC 8739; [2]", "result": "static"}, {"measurement": "MIC E. coli ATCC 8739", "setting": "E. coli ATCC 8739; [3]", "result": 2.00, "unit": "µM"}, {"measurement": "MBC E. coli ATCC 8739", "setting": "E. coli ATCC 8739; [4]", "result": 2.00, "unit": "µM"}, {"measurement": "MIC P. aeruginosa ATCC 9027", "setting": "P. aeruginosa ATCC 9027; [1]", "result": 1.00, "unit": "µM"}, {"measurement": "MBC P. aeruginosa ATCC 9027", "setting": "P. aeruginosa ATCC 9027; repeat 1", "result": 16.00, "unit": "µM"}, {"measurement": "MIC P. aeruginosa ATCC 9027", "setting": "P. aeruginosa ATCC 9027; [3]", "result": 2.00, "unit": "µM"}, {"measurement": "MBC P. aeruginosa ATCC 9027", "setting": "P. aeruginosa ATCC 9027; repeat 2", "result": 2.00, "unit": "µM"}]}, {"compound": "GWWKRVFKPVEKFGQRVRDAGIQGIEIAQQGANVLATARGGPPQQ-NH2 [Hill-Cec8]", "values": [{"measurement": "MIC S. aureus ATCC 6538", "setting": "S. aureus ATCC 6538; repeat 1, 64-0.25 μM", "result": "> 64.00", "unit": "µM"}, {"measurement": "MIC S. aureus ATCC 6538", "setting": "S. aureus ATCC 6538; repeat 2, 32-0.016 μM", "result": "> 32.00", "unit": "µM"}, {"measurement": "MBC E. coli ATCC 8739", "setting": "E. coli ATCC 8739; ATCC 8739, 16 h", "result": 1.00, "unit": "µM"}, {"measurement": "MIC E. coli ATCC 8739", "setting": "E. coli ATCC 8739; ATCC 8739, 16 h", "result": 1.00, "unit": "µM"}, {"measurement": "MIC E. coli ATCC 8739", "setting": "E. coli ATCC 8739; [3]", "result": 2.00, "unit": "µM"}, {"measurement": "MBC E. coli ATCC 8739", "setting": "E. coli ATCC 8739; [4]", "result": 8.00, "unit": "µM"}, {"measurement": "MIC P. aeruginosa ATCC 9027", "setting": "P. aeruginosa ATCC 9027; ATCC 9027, 16 h", "result": 4.00, "unit": "µM"}, {"measurement": "MBC P. aeruginosa ATCC 9027", "setting": "P. aeruginosa ATCC 9027; repeat 1", "result": 64.00, "unit": "µM"}, {"measurement": "MIC P. aeruginosa ATCC 9027", "setting": "P. aeruginosa ATCC 9027; [3]", "result": 8.00, "unit": "µM"}, {"measurement": "MBC P. aeruginosa ATCC 9027", "setting": "P. aeruginosa ATCC 9027; repeat 2", "result": 8.00, "unit": "µM"}]}, {"compound": "CC[C@H](C)[C@H](NC(=O)[C@H](CS)NC(=O)[C@H](Cc1c[nH]cn1)NC(=O)[C@H](C)NC(=O)[C@H](C)NC(=O)[C@H](CS)NC(=O)[C@H](C)NC(=O)[C@H](C)NC(=O)[C@H](Cc1c[nH]cn1)NC(=O)CNC(=O)[C@@H](NC(=O)[C@H](CCCCN)NC(=O)[C@H](Cc1ccccc1)NC(=O)[C@@H]1CCCN1C(=O)[C@H](CO)NC(=O)[C@H](CC(C)C)NC(=O)[C@H](CC(C)C)NC(=O)[C@H](CC(=O)O)NC(=O)[C@H](CS)NC(=O)[C@@H](NC(=O)[C@H](C)N)[C@@H](C)O)C(C)C)C(=O)N[C@@H](C)C(=O)N[C@@H](CCCNC(=N)N)C(=O)NCC(=O)N[C@@H](CCCCN)C(=O)N[C@@H](CCCNC(=N)N)C(=O)NCC(=O)NCC(=O)N[C@@H](Cc1c[nH]c2ccccc12)C(=O)N[C@@H](CS)C(=O)N[C@@H](CC(=O)O)C(=O)N[C@@H](CCCCN)C(=O)N[C@@H](CCCNC(=N)N)C(=O)N[C@@H](C)C(=O)N[C@H](C(=O)N[C@@H](CS)C(=O)N[C@@H](CC(N)=O)C(=O)N[C@@H](CS)C(=O)N[C@@H](CCCNC(=N)N)C(=O)N[C@@H](CCCCN)C(=O)O)C(C)C", "note": "[Hill-Def2a] (H-ATCDLLSPFKVGHAACAAHCIARGKRGGWCDKRAVCNCRK-OH; N-terminus and C-terminus assumed)", "values": [{"measurement": "MIC S. aureus ATCC 6538", "setting": "S. aureus ATCC 6538; repeat 1, 64-0.25 μM", "result": 0.25, "unit": "µM"}, {"measurement": "MBC S. aureus ATCC 6538", "setting": "S. aureus ATCC 6538; repeat 1", "result": "static"}, {"measurement": "MIC S. aureus ATCC 6538", "setting": "S. aureus ATCC 6538; repeat 2, 32-0.016 μM", "result": 2.00, "unit": "µM"}, {"measurement": "MBC S. aureus ATCC 6538", "setting": "S. aureus ATCC 6538; repeat 2", "result": "static"}, {"measurement": "MIC E. coli ATCC 8739", "setting": "E. coli ATCC 8739; [1]", "result": "> 64.00", "unit": "µM"}, {"measurement": "MIC E. coli ATCC 8739", "setting": "E. coli ATCC 8739; [3]", "result": "> 32.00", "unit": "µM"}, {"measurement": "MIC P. aeruginosa ATCC 9027", "setting": "P. aeruginosa ATCC 9027; [1]", "result": "> 64.00", "unit": "µM"}, {"measurement": "MIC P. aeruginosa ATCC 9027", "setting": "P. aeruginosa ATCC 9027; [3]", "result": "> 32.00", "unit": "µM"}]}, {"compound": "CC[C@H](C)[C@H](NC(=O)[C@H](CS)NC(=O)[C@H](Cc1c[nH]cn1)NC(=O)[C@H](CC(C)C)NC(=O)[C@H](C)NC(=O)[C@H](CS)NC(=O)[C@H](C)NC(=O)[C@H](C)NC(=O)[C@H](Cc1c[nH]cn1)NC(=O)CNC(=O)[C@@H](NC(=O)[C@H](CCCCN)NC(=O)[C@H](Cc1ccccc1)NC(=O)[C@@H]1CCCN1C(=O)[C@H](CO)NC(=O)[C@H](CC(C)C)NC(=O)[C@H](CC(C)C)NC(=O)[C@H](CC(=O)O)NC(=O)[C@H](CS)NC(=O)[C@@H](NC(=O)[C@H](C)N)[C@@H](C)O)C(C)C)C(=O)N[C@@H](C)C(=O)N[C@@H](CC(C)C)C(=O)NCC(=O)N[C@@H](CCCNC(=N)N)C(=O)N[C@@H](CCCNC(=N)N)C(=O)NCC(=O)NCC(=O)N[C@@H](Cc1c[nH]c2ccccc12)C(=O)N[C@@H](CS)C(=O)N[C@@H](CC(=O)O)C(=O)NCC(=O)N[C@@H](CCCNC(=N)N)C(=O)N[C@@H](C)C(=O)N[C@H](C(=O)N[C@@H](CS)C(=O)N[C@@H](CC(N)=O)C(=O)N[C@@H](CS)C(=O)N[C@@H](CCCNC(=N)N)C(=O)N[C@@H](CCCNC(=N)N)C(=O)O)C(C)C", "note": "[Hill-Def4] (H-ATCDLLSPFKVGHAACALHCIALGRRGGWCDGRAVCNCRR-OH; N-terminus and C-terminus assumed)", "values": [{"measurement": "bactericidal or bacteriostatic mechanism", "setting": "S. aureus ATCC 6538; MBC determination", "result": "bacteriostatic"}, {"measurement": "MIC S. aureus ATCC 6538", "setting": "S. aureus ATCC 6538; repeat 1, 64-0.25 μM", "result": 1.00, "unit": "µM"}, {"measurement": "MBC S. aureus ATCC 6538", "setting": "S. aureus ATCC 6538; repeat 1", "result": "static"}, {"measurement": "MIC S. aureus ATCC 6538", "setting": "S. aureus ATCC 6538; repeat 2, 32-0.016 μM", "result": 8.00, "unit": "µM"}, {"measurement": "MBC S. aureus ATCC 6538", "setting": "S. aureus ATCC 6538; repeat 2", "result": "static"}, {"measurement": "MIC E. coli ATCC 8739", "setting": "E. coli ATCC 8739; [1]", "result": "> 64.00", "unit": "µM"}, {"measurement": "MIC E. coli ATCC 8739", "setting": "E. coli ATCC 8739; [3]", "result": "> 32.00", "unit": "µM"}, {"measurement": "MIC P. aeruginosa ATCC 9027", "setting": "P. aeruginosa ATCC 9027; [1]", "result": "> 64.00", "unit": "µM"}, {"measurement": "MIC P. aeruginosa ATCC 9027", "setting": "P. aeruginosa ATCC 9027; [3]", "result": "> 32.00", "unit": "µM"}]}]}
